The values below come from US7795252B2, “Rapamycin analogues and the uses thereof in the treatment of neurological, proliferative, and inflammatory disorders” (Pfizer Inc., priority 2004, dated 2010).

Usually IC50 stands for the concentration needed to halve the response being measured.

Like-named read-outs stand apart in the source and are kept apart here.

Experiment [1] concerns human CD4+ T cells. Nature of the experiment: Anti-CD3/-CD28 stimulation and IL-2 re-stimulation assay. In kind it is cell-based. Here is the method:
(§1) In the following assays, human CD4+ T cells were purified by negative selection from peripheral blood lymphocytes using RosetteSep as per manufacture's instructions (StemCell Technologies, Inc. Vancouver, British Columbia).
Tosyl-activated magnetic microspheres (Dynal, Great Neck, N.Y.) were coated with anti-CD3 Ab (1 μg/10^7 microspheres), and anti-CD28Ab (0.5 μg/10^7 microspheres) as described in Blair et al. J. Immunol., 160:12, 1998. Murine IgG was used to saturate the binding capacity of the microspheres (total protein=5 μg/10^7 microspheres). Protein-coated microspheres were added to purified CD4+ T cells (2×10^6 cells/mL, ratio 1 bead: 1 cell) and activated for 72 hours in RPMI, 10% fetal calf serum, 2 mM glutamine media. Cells were harvested, washed, and cultured overnight in fresh media and re-stimulated with IL-2 as described in Bennett et al., J. Immunol. 170:711, 2003. Briefly, overnight rested cells were recounted, plated (10^5 cells/well) in flat-bottomed 96 well microtiter plates and stimulated with 1 ng/mL human IL-2 (R&D Systems, Minneapolis, Minn.) in the presence of increasing concentrations of compound. Seventy-two hours after culture re-stimulation, plates were pulsed with 1 μCi/well tritiated thymidine and incubated for a 6-16 hour period.

The test system of experiment [2] is human CD4+ T cells. Nature of the experiment: PMA/ionomycin activation assay. The class given is cell-based. Particulars: CD4+ T cells stimulated with PMA and ionomycin, tritiated thymidine incorporation, read-out: EC50, inhibition of proliferation. The method, then: as §1
Proliferation of the compounds was determined using this assay. CD4+ T cells (5×10^5 cells/well) were plated in flat bottomed 96 well microtiter plates in RPMI, 10% fetal calf serum, 2 mM glutamine media and stimulated with PMA (10 ng/mL) and ionomycin (200 ng/mL) in the presence of increasing concentration of compound. Seventy-two hours after activation, 100 μL of culture media was collected for IL-2 determination, an additional 100 μL fresh media was added to each well and cultures labeled with tritiated thymidine (1 μCi/well) for 6 hours. Cultures were harvested and tritiated thymidine incorporation (count per minute, CPM) assessed using a Trilux (Perkin Elmer, Shelton, Conn.). IL-2 production was determined using an ELISA as per manufacture's instructions (R&D Systems, Minneapolis, Minn.).

Experiment [3] relates to Dissociated cortical neuron cultures. Briefly: cortical neuron assay (neurite outgrowth). The class given is cell-based. Particulars: Cortical neurone, rat E15 cortical neurons, compound for 72 hours, read-out: EC50 in cortical neuron assays. The method, then:
Dissociated cortical neuron cultures were prepared as previously described (Pong et al., 2001). Briefly, embryonic day 15 rat fetuses were collected and dissected in ice-cold PBS. Dissected cortices were pooled together and transferred to an enzymatic dissociation medium containing papain. After 30 minutes, the tissue was mechanically triturated with a fire-polished glass Pasteur pipette. Single-cell suspensions in complete media were seeded on poly-L-ornithine and laminin coated 96-well plates. After 24 hours, cultures were treated with various concentrations of compound for 72 hours. The cultures were then fixed and stained with an anti-tubulin primary antibody (TUJ-1) and a fluorescent-tagged secondary antibody. Neurite outgrowth was determined by using the Enhanced Neurite Outgrowth (ENO) algorithm with the Cellomics ArrayScan and expressed as average neurite length or total neurite length per cell.

Experiment [4] concerns Spinal cord neuron cultures. Briefly: spinal cord neuron assay. In kind it is cell-based. The conditions noted are these: rat E15 spinal cord neurons, compound for 72 h, read-out: EC50 in spinal cord neuron assays. Here is the method:
Spinal cord neuron cultures were prepared from embryonic day 15 (E15) rat embryos (Sprague-Dawley, Charles River Laboratories, Wilmington, Mass.). The embryos were collected and their spinal cords were removed in ice-cold phosphate-buffered saline (PBS) without Ca^2+ and Mg^2+. Dissected pieces of spinal cord tissue were pooled together and transferred to an enzymatic dissociation media containing 20 IU/mL papain in Earle's balanced salt solution (Worthington Biochemical, Freehold, N.J.) and incubated for 30 minutes at 37° C. After enzymatic dissociation, the papain solution was aspirated and the tissue mechanically triturated with a fire-polished Pasteur pipette in complete media [Neurobasal Medium with B-27 supplement (Gibco, Grand Island, N.Y.), 100 IU/mL penicillin, 100 μg/mL streptomycin, 3.3 μg/mL aphidicolin, 0.5 mM glutamate] containing 2,000 IU/mL DNase and 10-mg/mL ovomucoid protease inhibitor. Single-cell suspensions in complete media were plated on pre-coated poly-L-ornithine/laminin 96-well plates (Becton-Dickinson, Bedford, Mass.) at a density of 1.0×10^4 cells/well. Spinal cord neurons were maintained for 24 h then exposed to vehicle or various concentrations of compound for 72 h.

For experiment [5], the system named is Mesencephalic dopaminergic neuron cultures. Nature of the experiment: dopaminergic (3H-dopamine) uptake assay after MPP+ exposure. Particulars: rat E15 mesencephalic dopaminergic neurons, read-out: EC50 in dopaminergic uptake assays. The class given is cell-based. The method, then:
Mesencephalic dopaminergic neuron cultures were prepared as described in Pong et al., J. Neurochem. 69: 986-994, 1997, which is incorporated herein by reference in its entirety. Embryonic day 15 (E15) rat fetuses were collected and dissected in ice-cold phosphate-buffered saline (PBS). The ventral piece of tissue compromising the mesencephalic dopaminergic region was dissected out. Dissected pieces of tissue were pooled together and transferred to an enzymatic dissociation medium containing 20 IU/mL papain in Earle's balanced salt solution (Worthington Biochemical, Freehold, N.J., USA) and incubated for 60 minutes at 37° C. After enzymatic dissociation, the papain solution was aspirated and the tissue mechanically triturated with a fire-polished glass Pasteur pipette in complete medium (equal volumes of minimum essential medium (MEM) and F-12 nutrient mixture (GibcoBRL) supplemented with 0.1 mg/mL apotransferrin and 2.5 μg/mL insulin) containing 2,000 IU/mL DNase and 10 mg/mL ovomucoid protease inhibitor.
For dopamine uptake experiments, single-cell suspensions in complete media were seeded on poly-L-ornithine and laminin coated 24-well plates. The cultures were maintained for seven days prior to experimentation. Cultures were pretreated with various concentrations of the compound for 24 hours, then exposed to 10 mM MPP+ for 1 hour. Following the 1 hour incubation, media was exchanged three times and fresh compound was added for an additional 48 hours.
After 48 hours growth of mesencephalic dopaminergic neuron cultures following MPP+ exposure, high-affinity 3H-dopamine uptake was performed using a modified method described by Prochiantz et al., Nature 293: 570-572, 1981, which is incorporated herein by reference. Cultures were washed with pre-warmed PBS containing 5.6 mM glucose and 1 mM ascorbic acid. Cultures were then incubated for 15 minutes at 37° C. with 50 nM 3H-dopamine (31 Ci/mmol, DuPont-NEN, Wilmington, Del., USA). The cultures were washed twice with buffer and lysed with 0.5 N NaOH. The lysate was transferred to a scintillation vial containing Ultima Gold scintillation cocktail and radioactivity was determined with a liquid scintillation counter. Alternatively, culture lysates can be washed twice with buffer, incubated for 2 hours at room temperature with Optiphase Supermix scintillation cocktail (Wallac Scintillation Products, Gaithersburg, Md., USA), and radioactivity measured with a liquid scintillation counter.

Experiment [6] relates to rats following pMCAO. Briefly: Permanent occlusion of middle cerebral artery (pMCAO), behavioral deficit scoring. In kind it is in vivo, rat. The conditions noted are these: I.V. administration (10 mg/kg) following pMCAO. Here is the method: Adult male Wistar rats (Charles River, Wilmington, Mass.) 270-300 g were anesthetized with 3% isoflurane in 70% nitrous oxide and 30% oxygen through a nose cone. Temperature was maintained at 37° C. throughout the surgery using a heating lamp. Permanent occlusion of MCAO was induced by electro cauterization of the distal portion of the MCA (via a craniotomy) with a 90 min ligation of both carotid arteries to interrupt collateral circulation (Chen S T, Hsu C Y, Hogan E L, Maricq H Balentine J D (1986) A model of focal ischemic stroke in the rat: reproducible extensive cortical infarction. Stroke 17:738-743). Compound was administered 10 mg/kg i.v. 1.5, 5.5, 24, 48, and 72 hours post ischemia. Rats were kept for 21 day for long-term functional recovery evaluation. […] Rats extending both forelimbs toward the table were scored as 0, flexing contralateral limb toward the body and/or rotating the contralateral shoulder and limb medially were scored as 1, and rolling up the body toward the contralateral side and attempting to grasp the tail were scored as 2. […] Rats retracting hind limb back on bench top immediately were scored as 0, delaying (>2 seconds) were scored as 1, and unable to retract hind limb were score as 2. […]

For the molecule `CO[C@H]1C[C@@H]2CC[C@@H](C)[C@@](O)(O2)C(=O)C(=O)N2CCCC[C@H]2C(=O)O[C@H]([C@H](C)C[C@@H]2CC[C@@H](O)[C@H](OC)C2)CC(=O)[C@H](C)/C=C(\C)[C@@H](O)[C@@H](OC)C(=O)[C@H](C)C[C@H](C)C2C=CC(/C=C/1C)ON2c1c(Cl)cccc1Cl` [Example 3, 37-(2,6-dichlorophenyl)-9,27-dihydroxy-3-{2-[4-hydroxy-3-methoxycyclohexyl]-1-methylethyl}-10,21-dimethoxy-6,8,12,14,20,26-hexamethyl-4,9,10,12,13,14,15,18,21,22,23,24,25,26,27,32,33,34,34a-nonadecahydro-3H-23,27-epoxy-18,15-(epoxyimino)pyrido[2,1-c][1,4]oxazacyclohentriacontine-1,5,11,28,29(6H,31H)-pentone], in experiment [1] (CD4+ T cells activated with anti-CD3/anti-CD28, re-stimulated with 1 ng/mL human IL-2, read-out: IC50, inhibition of IL-2 production), the IC50 was under 1000 nM. Moreover, the “IL-2 production compared with rapamycin and CCI-779” value in experiment [1] (CD4+ T cells, IL-2 re-stimulation) was “commensurate”. In addition, the EC50 in experiment [2] was 200 to 4900 nM; in experiment [3], under 1000 nM; in experiment [4] it was under 1000 nM.

With `CO[C@H]1C[C@@H]2CC[C@@H](C)[C@@](O)(O2)C(=O)C(=O)N2CCCC[C@H]2C(=O)O[C@H]([C@H](C)C[C@@H]2CC[C@@H](OC(=O)C(C)(C)Cc3ccccn3)[C@H](OC)C2)CC(=O)[C@H](C)/C=C(\C)[C@@H](O)[C@@H](OC)C(=O)[C@H](C)C[C@H](C)C2C=CC(/C=C/1C)ON2c1ccccc1` [Example 6, 9,27-dihydroxy-3-{-2-[4-hydroxy-3-methoxycyclohexyl]-1-methylethyl}-10,21-dimethoxy-6,8,12,14,20,26-hexamethyl-37-phenyl-4,9,10,12,13,14,15,18,21,22,23,24,25,26,27,32,33,34,34a-nonadecahydro-3H-23,27-epoxy-18,15-(epoxyimino)pyrido[2,1-c][1,4]oxazacyclohentriacontine-1,5,11,28,29(6H,31H)-pentone ester with-2,2-dimethyl-3-(pyridin-2-yl)-propionic acid], the EC50 in experiment [5] (Neuron) and in experiment [4] was under 1000 nM in each case.

As for Rapamycin phenyltriazolinedione, in experiment [5], the EC50 is under 1000 nM.

In the case of `CO[C@H]1C[C@@H]2CC[C@@H](C)[C@@](O)(O2)C(=O)C(=O)N2CCCC[C@H]2C(=O)O[C@H]([C@H](C)C[C@@H]2CC[C@@H](OC(=O)C(C)(CO)CO)[C@H](OC)C2)CC(=O)[C@H](C)/C=C(\C)[C@@H](O)[C@@H](OC)C(=O)[C@H](C)C[C@H](C)/C=C/C=C/C=C/1C` [CCI-779, reference compound], the EC50 in experiment [5] (Neuron) and in experiment [3] was over 1000 nM each time.

Regarding `CO[C@H]1C[C@@H]2CC[C@@H](C)[C@@](O)(O2)C(=O)C(=O)N2CCCC[C@H]2C(=O)O[C@H]([C@H](C)C[C@@H]2CC[C@@H](O)[C@H](OC)C2)CC(=O)[C@H](C)/C=C(\C)[C@@H](O)[C@@H](OC)C(=O)[C@H](C)C[C@H](C)[C@@H]2CC[C@H](/C=C/1C)ON2c1ccccc1` [Example 2, 9,27-dihydroxy-3-{2-[4-hydroxy-3-methoxycyclohexyl]-1-methylethyl}-10,21-dimethoxy-6,8,12,14,20,26-hexamethyl-37-phenyl-4,9,10,12,13,14,15,16,17,18,21,22,23,24,25,26,27,32,33,34,34a-henicosahydro-3H-23,27-epoxy-18,15-(epoxyimino)pyrido[2,1-c][1,4]oxazacyclohentriacontine-1,5,11,28,29(6H,31H)-pentone], the EC50 in experiment [3] and in experiment [4] was under 1000 nM throughout. The behavior deficit scoring entry in experiment [6] is reported as “statistically significant reduction”.

With `CO[C@H]1C[C@@H]2CC[C@@H](C)[C@@](O)(O2)C(=O)C(=O)N2CCCC[C@H]2C(=O)O[C@H]([C@H](C)C[C@@H]2CC[C@@H](O)[C@H](OC)C2)CC(=O)[C@H](C)/C=C(\C)[C@@H](O)[C@@H](OC)C(=O)[C@H](C)C[C@H](C)/C=C/C=C/C=C/1C` [rapamycin], the EC50 in experiment [5] (Neuron) and in experiment [3] was over 1000 nM throughout.
